According to US20210085703A1, “Compositions and Methods for Preventing or Treating Nephrolithiasis” (SP Nutraceuticals, Inc., priority 2017, published 2021):
Where two headings read alike, the source gives them in different places.

What was measured:
HEK293 cells [1] = assay: Cell viability of HEK cells under oxalate conditions with arbutin; assay type: cell-based, human
Protocol: FIG. 6a) Confocal fluorescence images of HEK293 cells stained with CellTracker Red to label the cell surface and Hoechst to label the nuclei. HEK293 cells were treated with 20 μM sodium oxalate for 30 mins. Birefringence signal was observed within HEK293 cells (white signal). FIG. 6b) Activity of LDH released from HEK293 cells after 30 min incubation with oxalate in the presence or absence of arbutin. FIG. 6c) Cell viability in arbutin treated HEK293 and PC3MLN4 cells over a 3 day period. Green line represents control normalized to 100% at that same timepoint. *** denotes p<0.05, two way ANOVA; Scheffe a correction.
To assess the cytotoxity of sodium oxalate and arbutin, human embryonic kidney epithelial cells (HEK293; ATCC® CRL-1573™), were cultured in 6-well plate containing 18 mm diameter glass coverslips to 50% confluence. […] The treated media was then removed and stored at 4° C. for further analysis. Cells were washed with Cl-free buffer and stained with 20 μM Cell tracker red CMTPX Dye (ThermoFisher Scientific) for 15 mins. Cells were triple washed with Cl-buffer and coverslips were mounted with ProLong® Gold Antifade Mountant with DAPI (ThermoFisher Scientific) without permeabilizing in preparation for confocal microscopy. Samples were imaged using a Nikon A1R+ confocal microscope (1.2 au) with a 20× dry or 60× oil-immersion lens and presented using NIS Elements software (Nikon).

HEK293 cells [2] = assay: Cytotoxicity assay (LDH release) of sodium oxalate and arbutin on human kidney epithelial cells; assay type: cell-based; settings: arbutin 1 mM final with oxalate, 30 min incubation
Protocol: To assess the cytotoxity of sodium oxalate and arbutin, human embryonic kidney epithelial cells (HEK293; ATCC® CRL-1573™), were cultured in 6-well plate containing 18 mm diameter glass coverslips to 50% confluence. Following aspiration of culture medium, the cells were incubated in a chloride-free solution containing 130 mM Potassium Gluconate, 5 mM Glucose, and 20 mM HEPES (pH 7.4) and 20 μM sodium oxalate for 30 minutes. The treated media was then removed and stored at 4° C. for further analysis. Cells were washed with Cl-free buffer and stained with 20 μM Cell tracker red CMTPX Dye (ThermoFisher Scientific) for 15 mins. Cells were triple washed with Cl-buffer and coverslips were mounted with ProLong® Gold Antifade Mountant with DAPI (ThermoFisher Scientific) without permeabilizing in preparation for confocal microscopy. Samples were imaged using a Nikon A1R+ confocal microscope (1.2 au) with a 20× dry or 60× oil-immersion lens and presented using NIS Elements software (Nikon).
The cytotoxicity of HEK293 cells in sodium oxalate media with or without arbutin was determined by quantifying […] (LDH) content liberated by damaged cells using Cytotoxicity Detection KitPLUS (LDH) (Roche) following the manufacturers instructions. Absorbance readings were taken at 492 nm using BioTek PowerWave HT Microplate Spectrophotometer.

[3] = Preliminary NMR studies of arbutin in acidic conditions; assay type: physicochemical; settings: low pH, in solution
Text: Arbutin has been described to readily degrade into the split components D-glucose and HQ (and conjugates) in acidic environments, an enteric coated tablet vehicle could potentially be utilised to bypass hydrolysis by stomach acids and improve oral bioavailability.

[4] = in vitro or in vivo studies; cited from earlier work
[5] = tested on: calcium oxalate stone formation in D. melanogaster; assay: Dose response relationship of arbutin and calcium oxalate stone formation (fecal excreta and dissected Malpighian tubules); assay type: in vivo, Drosophila melanogaster
Protocol: To quantify calcium oxalate calculi via D. melanogaster excreta birefringence assay, approximately 20 newly eclosed flies were added to each of 15 vials containing either of the lithogenic diets or standard food medium as a control. Stone forming diets were prepared according to the method discussed above. A glass coverslip (18×18 mm) was suspended from the cotton tube plug to allow for the collection of fecal matter. Following a 14-day incubation period, the coverslip was extracted from each tube and each coverslip was directly imaged by confocal microscopy under polarized light. Control experiments performed in a similar fashion with standard food media. The percent area of birefringence for each coverslip was individually analyzed and quantified using NIH ImageJ software (Particle Analysis function). In order to measure dose response relationship of arbutin and calcium oxalate stone formation, thirty milliliters of 0.5% (w/v) sodium oxalate media was prepared with […] arbutin. A 10-fold serial dilution was performed to obtain 15 ml of media per dilution. Each dilution was divided into 3 narrow fly vials to yield triplicates. Approximately 20 newly eclosed flies were added to each vial with a glass coverslip (18×18mm) suspended from the cotton via plug to collect fecal matter. After a 14-day incubation period, each coverslip was extracted and stone burden was quantified as described above to observe the dose-response relationship between arbutin concentration and percentage area of birefringence.

[6] = rat; cited from earlier work
[7] = tested on: calcium oxalate calculi deposition in fecal excreta of D. melanogaster; assay: Drug library screening by D. melanogaster fecal excreta birefringence assay; assay type: in vivo, Drosophila melanogaster; settings: 20 μM candidate compound in fly media with 0.5% (w/v) sodium oxalate; duplicates
Protocol: To quantify calcium oxalate calculi via D. melanogaster excreta birefringence assay, approximately 20 newly eclosed flies were added to each of 15 vials containing either of the lithogenic diets or standard food medium as a control. Stone forming diets were prepared according to the method discussed above. A glass coverslip (18×18 mm) was suspended from the cotton tube plug to allow for the collection of fecal matter. Following a 14-day incubation period, the coverslip was extracted from each tube and each coverslip was directly imaged by confocal microscopy under polarized light. Control experiments performed in a similar fashion with standard food media. The percent area of birefringence for each coverslip was individually analyzed and quantified using NIH ImageJ software (Particle Analysis function). […] The percentage area of birefringence was quantified and compared birefringence data from control experiments with separately prepared 0.5% sodium oxalate media with no addition of candidate compounds. […] After 7 days of incubation and ingestion of drug candidates, viability of flies was quantitated and all coverslips containing fecal excreta were analyzed for birefringence signal (FIG. 2d).

[8] = In vitro patient-urine based analysis of arbutin and calcium oxalate interactions (birefringence); parameters: species or system human; settings: 1 mM arbutin, pH7/37° C., 24 hours
Protocol: 50 μl of recurrent calcium oxalate stone forming patient urine and healthy urine samples were combined with 45 μl of 20 mM 4-(2-hydroxyethyl)-1-piperazineethanesulfonic acid (HEPES) buffer (pH 7-8). 5 μl of 20 mM arbutin was added to each solution to form a 1 mM final concentration of the drug. Immediately after addition of the drug, 5 μl of each sample was spotted on a glass slide and birefringence data was imaged on confocal microscope. Each sample was incubated at 37° C. for 24 hours. 5 μl of the sample was identically collected and reimaged. The percent area of birefringence was data analysed as described above. This experiment was repeated in sodium acetate/acetic acid buffer at pH of 4 to observe the efficacy of arbutin in acidic environments. Reduction of percentage stone reduction was analysed using one way ANOVA. Control experiments were conducted using Quick Fix plus synthetic urine from Spectrum labs Cincinnati, Ohio, USA.

[9] = mouse; cited from earlier work
[10] = cited from earlier work
[11] = tested on: calcium oxalate stone burden in D. melanogaster fed patient urine; assay: Patient derived urine based calcium oxalate stone induction in D. melanogaster; assay type: in vivo, Drosophila melanogaster
Protocol: In addition, effect of arbutin on patient derived urine based calcium oxalate stone induction in D. melanogaster was assessed. Urine samples were collected from recurrent calcium oxalate stone forming patients (n=10 patients) and centrifuged at 2500 rpm. One milliter aliquots of supernatant were prepared and stored at −80° C. for further analysis. Ten milliters of standard medium was prepared and thoroughly mixed with 1mL of patient urine, this was separated into two individual narrow vials (5 mL per vial). Approximately 20 newly eclosed flies were added to each vial. A glass coverslip (18×18 mm) was suspended from the cotton vial plug to collect fecal matter. […] Stone burden on each coverslip was quantified via the aforementioned birefringence assay and results were expressed as mean±standard error of mean (SEM). Percentage stone burden were analyzed using one way analysis of variance (ANOVA), (Prism 6, GraphPad Software, Inc., San Diego, Calif., USA) (FIG. 3e).
D. melanogaster incubated in this patient urine based model generated calculi in the same manner as with fly food supplemented with sodium oxalate. […] Various pH's were evaluated in order to recapitulate the pH in human urine at the kidney and bladder (pH 4-6) with a greater reduction in calculi formation observed at pH 7-8 (FIG. 3f, * denotes p<0.05, two-way ANOVA, Scheffe a correction).

With `OCC1OC(Oc2ccc(O)cc2)C(O)C(O)C1O` [arbutin, hydroquinone β-D-glucopyranoside] the “cell viability compared to arbutin treatment alone” value (HEK293 cells [1]; arbutin 1 mM final with oxalate, HEK cells) was “no impact”, the “effect on oxalate induced loss of cell viability” value (HEK293 cells [1]; arbutin 1 mM final, HEK cells under 0.1% calcium oxalate conditions) was “ameliorated this effect” and the “LDH activity compared to arbutin treatment alone” value (HEK293 cells [2]) was “no impact”. For the same compound, the “stability in acidic conditions (NMR)” value [3] was “stable”, the genotoxic effects [4] was “No genotoxic effects” and the “calculi content in MTs” value ([5]; 32 μM and 512 μM arbutin treatment) was “decreases in calculi content in MTs”. For the same compound, the “arbutin concentration at which calculi content in fecal excreta significantly decreased” value ([5]; 0.5% (w/v) sodium oxalate media, 14-day incubation) was greater than 64 µM, the IC50 ([5]; Drosophila melanogaster, 336 h, 0.5% (w/v) sodium oxalate media, 14-day incubation, read-out: calculated IC50, calculi content deposited in fecal excreta) was 40 µM and the “calculi deposits in dissected MTs compared to controls” value ([5]; arbutin at 1 mM in fly media+0.05% sodium oxalate, controls fly media+0.5% oxalate±DMSO) was “near abrogation of calculi deposits”. The “lowest concentration with anti-lithogenic abilities” value ([5]; fly media supplemented with sodium oxalate (0.5%)) was 64 µM, the “acute and chronic toxicity by oral dosing” value [6] was “low risk of acute and chronic toxicity” and the “anti-lithogenic activity in library screen (calculi deposition in fecal excreta)” value [7] was “consistently exhibited anti-lithogenic activity”. For the same compound, the “difference in birefringence events in control, healthy urine samples” value [8] was “not significant”, the “birefringence events in nephrolithiasis patient urine samples” value ([8]; n=3) was “significant reduction in birefringence events” and the “acute and chronic toxicity by oral dosing” value [9] was “low risk of acute and chronic toxicity”. For the same compound, the “administered arbutin dose retrieved in the urine as HQ conjugates” value ([10]; human, 4 hrs following an oral dose) was “approximately 70%”, the “absorption from the GI tract” value ([10]; oral) was “heavily absorbed from the GI tract” and the “stone burden via fecal excreta assay in comparison with citrate” value ([11]; 1 mM final concentration in fly media with patient urine, regardless of pH) was “significant decrease in stone burden”. For the same compound, the “pH with greater reduction in calculi formation” value ([11]; 1 mM in fly media with patient urine, various pHs) was 7-8 pH.
